ChEMBL document CHEMBL5550170, “Discovery of novel benzimidazole derivatives as selective and reversible monoamine oxidase B inhibitors for Parkinson's disease treatment” (Eur J Med Chem, 2024)
pIC50: −log10 of the molar value. One block for each compound: values may come before it.

How the values were obtained:
[1] = target: T1, Amine oxidase [flavin-containing] B (Homo sapiens, UniProt P27338); conditions: 0.5 h, read-out: INH
T1 sequence (P27338 whole entry): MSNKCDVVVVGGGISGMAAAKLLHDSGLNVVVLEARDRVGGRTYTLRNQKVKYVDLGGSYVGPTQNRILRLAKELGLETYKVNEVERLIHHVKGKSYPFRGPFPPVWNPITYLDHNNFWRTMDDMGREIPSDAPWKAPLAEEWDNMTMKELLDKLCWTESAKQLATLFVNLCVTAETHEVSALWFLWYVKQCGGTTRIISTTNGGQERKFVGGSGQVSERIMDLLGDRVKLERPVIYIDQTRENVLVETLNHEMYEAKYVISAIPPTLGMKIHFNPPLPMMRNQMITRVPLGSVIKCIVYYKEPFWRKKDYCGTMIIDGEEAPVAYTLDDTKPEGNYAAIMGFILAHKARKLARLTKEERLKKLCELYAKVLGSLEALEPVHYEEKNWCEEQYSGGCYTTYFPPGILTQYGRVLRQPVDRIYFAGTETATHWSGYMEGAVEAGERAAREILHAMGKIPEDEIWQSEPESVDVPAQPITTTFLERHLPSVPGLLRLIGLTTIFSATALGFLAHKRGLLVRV
Description: Inhibition of human MAO-B at 1 uM preincubated with compound for 10 mins followed by substrate addition and measured after 30 mins relative to control

[2] = target: T1, Amine oxidase [flavin-containing] B
Description: Inhibition of human MAO-B preincubated with compound for 10 mins followed by substrate addition and measured after 30 mins

[3] = target: T2, Amine oxidase [flavin-containing] A (Homo sapiens, UniProt P21397)
T2 sequence (P21397 whole entry): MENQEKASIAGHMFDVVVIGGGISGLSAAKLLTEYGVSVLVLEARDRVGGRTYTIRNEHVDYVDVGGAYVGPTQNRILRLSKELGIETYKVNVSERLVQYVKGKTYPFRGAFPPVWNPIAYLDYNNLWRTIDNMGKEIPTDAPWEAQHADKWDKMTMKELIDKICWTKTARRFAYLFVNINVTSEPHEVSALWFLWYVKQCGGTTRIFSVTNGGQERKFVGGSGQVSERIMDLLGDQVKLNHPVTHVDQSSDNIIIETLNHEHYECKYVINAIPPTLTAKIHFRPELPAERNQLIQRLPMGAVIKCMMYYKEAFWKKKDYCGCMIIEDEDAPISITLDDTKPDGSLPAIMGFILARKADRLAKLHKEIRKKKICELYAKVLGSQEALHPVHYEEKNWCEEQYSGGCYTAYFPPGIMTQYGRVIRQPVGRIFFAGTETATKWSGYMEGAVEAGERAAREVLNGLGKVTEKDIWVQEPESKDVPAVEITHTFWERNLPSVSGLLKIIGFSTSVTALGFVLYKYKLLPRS
Description: Inhibition of human MAO-A preincubated with compound for 10 mins followed by substrate addition and measured after 30 mins

Compound: COc1ccc2[nH]c(CC(N)=O)nc2c1
inhibition at 1 µM [1]: 0.93%

Compound: NC(=O)Cc1nc2cc(C(=O)Nc3ccccc3)ccc2[nH]1
inhibition at 1 µM [1]: 29.9%

Compound: NC(=O)Cc1nc2cc(C(=O)Nc3ccccc3F)ccc2[nH]1
inhibition at 1 µM [1]: 44%

Compound: COc1ccccc1NC(=O)c1ccc2[nH]c(CC(N)=O)nc2c1
inhibition at 1 µM [1]: 24.8%

Compound: COc1cccc(NC(=O)c2ccc3[nH]c(CC(N)=O)nc3c2)c1
inhibition at 1 µM [1]: 34.6%

Compound: Cc1ccc(NC(=O)c2ccc3[nH]c(CC(N)=O)nc3c2)cc1C
inhibition at 1 µM [1]: 31.3%

Compound: Cc1ccc(NC(=O)c2ccc3[nH]c(CC(N)=O)nc3c2)cc1
inhibition at 1 µM [1]: 29.6%

Compound: C#CCN(C)Cc1ccccc1 [PARGYLINE]
inhibition at 1 µM [1]: 62.9%

Compound: COc1ccc(NC(=O)c2ccc3[nH]c(CC(N)=O)nc3c2)cc1
inhibition at 1 µM [1]: 28.5%

Compound: Cc1ccccc1NC(=O)c1ccc2[nH]c(CC(N)=O)nc2c1
inhibition at 1 µM [1]: 31.8%

Compound: Cc1cccc(NC(=O)c2ccc3[nH]c(CC(N)=O)nc3c2)c1C
inhibition at 1 µM [1]: 27.2%

Compound: NC(=O)Cc1nc2cc(C(=O)Nc3ccc(F)cc3)ccc2[nH]1
inhibition at 1 µM [1]: 44.4%

Compound: NC(=O)Cc1nc2cc(C(=O)Nc3ccc(Cl)cc3)ccc2[nH]1
inhibition at 1 µM [1]: 38.4%

Compound: NC(=O)Cc1nc2cc(C(=O)Nc3cccc(Cl)c3)ccc2[nH]1
inhibition at 1 µM [1]: 47.6%

Compound: NC(=O)Cc1nc2cc(C(=O)Nc3cccc(F)c3)ccc2[nH]1
inhibition at 1 µM [1]: 39.6%

The remaining lines, values ahead:

inhibition at 1 µM [1]: 8.29%
Compound: Cc1ccc(COc2ccc3[nH]c(CC(N)=O)nc3c2)cc1

inhibition at 1 µM [1]: 67.3%
pIC50 [2]: 6.53
Compound: NC(=O)Cc1nc2cc(OCc3cccc(Cl)c3)ccc2[nH]1

inhibition at 1 µM [1]: 10.1%
Compound: NC(=O)Cc1nc2cc(OCc3ccccc3F)ccc2[nH]1

inhibition at 1 µM [1]: 52.2%
pIC50 [2]: 6.79
Compound: NC(=O)Cc1nc2cc(OCc3ccc(C(F)(F)F)cc3)ccc2[nH]1

inhibition at 1 µM [1]: 52.7%
pIC50 [2]: 6.21
Compound: Cc1cccc(COc2ccc3[nH]c(CC(N)=O)nc3c2)c1

inhibition at 1 µM [1]: 5.84%
Compound: COc1cccc(COc2ccc3[nH]c(CC(N)=O)nc3c2)c1

inhibition at 1 µM [1]: 8.15%
Compound: NC(=O)Cc1nc2cc(OCc3ccccc3Cl)ccc2[nH]1

pIC50 [3]: 4.50
inhibition at 1 µM [1]: 58.5%
pIC50 [2]: 6.35
Compound: NC(=O)Cc1nc2cc(OCc3ccc(Cl)cc3)ccc2[nH]1

inhibition at 1 µM [1]: 2.8%
Compound: Cc1nc2cc(OCc3cccc(F)c3)ccc2[nH]1

inhibition at 1 µM [1]: 5.6%
Compound: Cc1ccccc1COc1ccc2[nH]c(CC(N)=O)nc2c1

pIC50 [3]: 4.30
inhibition at 1 µM [1]: 67.5%
pIC50 [2]: 6.90
Compound: NC(=O)Cc1nc2cc(OCc3cccc(F)c3)ccc2[nH]1

inhibition at 1 µM [1]: 33.7%
Compound: Cc1cccc(NC(=O)c2ccc3[nH]c(CC(N)=O)nc3c2)c1

inhibition at 1 µM [1]: 14.3%
Compound: NC(=O)Cc1nc2cc(OCc3ccccc3)ccc2[nH]1
